Experimental data from publication PMC9164017 (ACS nano, 2021).

Legend:
MeV F (S262R) = MeV F (S262R) (Measles virus, UniProt Q786F3, S262R); format: cell-based; conditions: 1 μM, 60 min 37 °C, then 10 mM zanamivir; triplicate experiments
MeV F = MeV F (Measles virus, UniProt Q786F3); format: cell-based; conditions: with or without 3g, coincubation or sequential incubation; Figure S17

In the case of `N#Cc1cccc(NC(=O)Cc2ccccc2)c1` [3g, N-(3-Cyanophenyl)-2-phenylacetamide], the “step of entry at which the compound acts (RBCs released, retained or fused)” value (MeV F (S262R)) is reported as “reversibly bound RBC” and the “colocalization of [FIP–HRC]2–PEG11 with F” value (MeV F) is reported as “colocalization is disrupted”.
